Reference: paper PMC7395068, “The evolution of strategies to minimise the risk of human drug-induced liver injury (DILI) in drug discovery and development” (Archives of Toxicology, 2020)
Read-outs that look alike come from different tables or passages of the source.

Columns and labels:
[1] = Plasma free fraction (fu) and unbound Cmax (Cmax,u); type: in vitro ADME, human
Protocol: The prediction of DILI severity was evaluated further using the 3D combined HCI assays using plasma-free fraction. The majority of fu values were obtained from literature, when unavailable in-house prediction was utilised. Unbound plasma Cmax concentrations (Cmax,u) were derived by multiplying total plasma Cmax with the corresponding free fraction (fu) for each compound.

[2] = system: hLiMTs
[3] = system: HepaRG spheroids
[4] = cited from earlier work
[5] = system: HepG2 cells; conditions: cited from earlier work
[6] = system: HepG2 cells; conditions: cited from earlier work; remark: listed apart in the source
[7] = system: human hepatocytes; conditions: cited from earlier work
[8] = system: PHH; conditions: cited from earlier work
[9] = system: hLiMTs; conditions: cited from earlier work
[10] = system: PHH spheroids; conditions: cited from earlier work
[11] = cited from earlier work; remark: listed apart in the source
[12] = plasma free fraction; cited from earlier work
[13] = cited from earlier work; remark: listed apart in the source
[14] = system: THLE-Null and THLE-3A4 cells; conditions: In vitro Assay; ref Gustafsson 2014; cited from earlier work
[15] = system: rBsep; conditions: In vitro Assay; ref Dawson 2012; cited from earlier work
[16] = system: hLiMTs; assay: Combined HCI (HCS) and cellular ATP 3D assay in hLiMTs; conditions: for AC50 / minimal effective concentration: Homo sapiens
[17] = system: HepaRG spheroids; assay: Combined HCI (HCS) and cellular ATP 3D assay in HepaRG spheroids; conditions: HepaRG; for AC50 / minimal effective concentration: Homo sapiens
[18] = In vitro Assay, ref Persson 2013
[19] = In vitro Assay, ref Proctor 2017

With CCOC(=O)c1ncn2c1CN(C)C(=O)c1cc(F)ccc1-2 [flumazenil, reference compound] the “Human plasma Cmax,u” value ([1]; unbound plasma Cmax) was 0.650 µM, the “DILI prediction hLiMTs (HCS-MEC)” value [2] was “-VE” and the “DILI prediction HepaRG spheroids (HCS-MEC)” value [3] was “-VE”. For the same compound, the “DILI severity category (Chen et al. [2016])” value ([4]; LTKB DILIrank category, ref Chen et al. 2016) was “No”, the “DILI severity category (Chen 2016)” value ([4]; human DILI classification, LTKB DILIrank, ref Chen et al. 2016) was “No” and the DILI severity category ([4]; human DILI severity, ref Chen et al.) was “No”. The “DILI +VE (5-8), DILI -VE (-4)” value ([4]; ref Chen 2016) was “-VE”, the DILI severity category ([4]; ref Chen 2016) was “vNo-DILI-Concern” and the “Structural based (HCI)” value ([5]; In vitro Assay, ref O'Brien 2006) was “-VE”. The “DILI in vitro assay prediction, O'Brien (2006)” value ([5]; Structural based (HCI), HepG2, ref O'Brien et al. 2006) was “-VE”, the Cluser analysis [6, 18] was “-VE” and the “Structural based (HCI)” value [6, 18] was “-VE”. The “DILI in vitro assay prediction, Persson (2013)” value ([6]; Structural based (HCI), HepG2, ref Persson et al. 2013) was “-VE”, the “Structural based (HCI)” value ([7]; In vitro Assay, ref Xu 2008) was “-VE” and the “DILI in vitro assay prediction, Xu (2008)” value ([7]; Structural based (HCI), human hepatocytes, ref Xu et al. 2008) was “-VE”. For the same compound, the “PHH/100uM, Proctor (2017)” value ([8]; 2D PHH, ATP, IC50 threshold 100 µM, ref Proctor et al. 2017) was “-VE”, the “PHH ATP <100uM” value [8, 19] was “-VE” and the “hLiMTs ATP <100uM” value [9, 19] was “-VE”. The “hLiMTs/100uM, Proctor (2017)” value ([9]; hLiMTs, ATP, IC50 threshold 100 µM, ref Proctor et al. 2017) was “-VE”, the “hLiMTs ATP <20 x Cmax” value ([10]; In vitro Assay, ref Vorrink 2018) was “-VE” and the “DILI in vitro assay prediction, Vorrink (2018)” value ([10]; PHH spheroids, ATP, 14 days, IC20 < 20 × Cmax.tot, ref Vorrink et al. 2018) was “-VE”. For the same compound, the Cmax ([11]; read-out: Human plasma Cmax, total plasma Cmax.tot, median of 9 literature references) was 1.12 µM, the fu [12] was 0.580 and the “Assigned DILI category” value ([13]; Chen et al. 2016 or literature alignment, ref Chen et al. 2016) was 1. The “In vivo DILI” value ([13]; ref Dawson 2012) was “-VE”, the “In vivo DILI” value ([13]; ref Gustafsson 2014) was “-VE” and the “In vivo DILI” value ([13]; ref O'Brien 2006) was “-VE”. The “In vivo DILI” value ([13]; ref Persson 2013) was “-VE”, the “In vivo DILI” value ([13]; ref Proctor 2017) was “-VE” and the “In vivo DILI” value ([13]; ref Vorrink 2018) was “-VE”. The “In vivo DILI” value ([13]; ref Williams 2019) was “-VE”, the “In vivo DILI” value ([13]; ref Xu 2008) was “-VE” and the THLE-Null [14] was “-VE”. For the same compound, the “Inhibition of rBsep cutoff<1& cmax u>.2” value [15] was “-VE”, the “Inhibition of rBsep cutoff<3” value [15] was “-VE” and the “hLiMTs <25x Avg Cmax ATP” value ([16]; hLiMTs, ATP endpoint, cut-off <25x Avg Cmax) was “-ve”. For the same compound, the “hLiMTs <25x Avg Cmax HCS” value ([16]; hLiMTs, HCS endpoints, cut-off <25x Avg Cmax) was “-ve”, the “hLiMTs <25x Avg Cmax All” value ([16]; hLiMTs, all endpoints (ATP and HCS), cut-off <25x Avg Cmax) was “-ve” and the “hLiMTs Cmax max All” value ([16]; hLiMTs, all endpoints, Cmax max used) was “-ve”. For the same compound, the “hLiMTs Cmax min All” value ([16]; hLiMTs, all endpoints, Cmax min used) was “-ve”, the “hLiMTs <10 uM All” value ([16]; hLiMTs, all endpoints, cut-off <10 uM) was “-ve” and the “HepaRG <25x Avg Cmax ATP” value ([17]; ATP endpoint, cut-off <25x Avg Cmax) was “-ve”. For the same compound, the “HepaRG <25x Avg Cmax HCS” value ([17]; HCS endpoints, cut-off <25x Avg Cmax) was “-ve”, the “HepaRG <25x Avg Cmax All” value ([17]; all endpoints (ATP and HCS), cut-off <25x Avg Cmax) was “-ve” and the “HepaRG Cmax max All” value ([17]; all endpoints, Cmax max used) was “-ve”. For the same compound, the “HepaRG Cmax min All” value ([17]; all endpoints, Cmax min used) was “-ve” and the “HepaRG <10 uM All” value ([17]; all endpoints, cut-off <10 uM) was “-ve”.
With CO[C@@]12[C@H](COC(N)=O)C3=C(C(=O)C(C)=C(N)C3=O)N1C[C@@H]1N[C@@H]12 [mitomycin C] the “Human plasma Cmax,u” value ([1]; human) was 5.396 µM, the “hLiMTs <10 uM All” value [2] was “+ve (key: +ve: <10 uM)” and the “hLiMTs <100x Avg Cmaxu ATP” value ([2]; human) was “+ve (key: +ve: <100x Avg Cmaxu)”. The “hLiMTs <100x Avg Cmaxu All” value ([2]; human) was “+ve (key: +ve: <100x Avg Cmaxu)”, the “hLiMTs <100x Avg Cmaxu HCS” value ([2]; human) was “+ve (key: +ve: <100x Avg Cmaxu)” and the “hLiMTs Cmax max All” value ([2]; human) was “+ve”. For the same compound, the “hLiMTs Cmax min All” value ([2]; human) was “+ve”, the “HepaRG <10 uM All” value [3] was “+ve (key: +ve: <10 uM)” and the “HepaRG <100x Avg Cmaxu ATP” value ([3]; human) was “+ve (key: +ve: <100x Avg Cmaxu)”. For the same compound, the “HepaRG <100x Avg Cmaxu All” value ([3]; human) was “+ve (key: +ve: <100x Avg Cmaxu)”, the “HepaRG <100x Avg Cmaxu HCS” value ([3]; human) was “+ve (key: +ve: <100x Avg Cmaxu)” and the “HepaRG Cmax max All” value ([3]; human) was “+ve”. The “HepaRG Cmax min All” value ([3]; human) was “+ve”, the “PHH/100uM, Proctor (2017)” value [8] was “+VE (key: +VE: IC50 threshold of 100 µM)” and the “hLiMTs/100uM, Proctor (2017)” value [9] was “+VE (key: +VE: IC50 threshold of 100 µM)”. The Cmax ([11]; human, in vivo) was 7.1 µM, the AC50 ([16]; read-out: ATP endpoint AC50) was 929 nM and the minimal effective concentration ([16]; read-out: ATP endpoint MEC) was 0.454 µM. For the same compound, the AC50 ([16]; read-out: HCS endpoint AC50) was 1090 nM, the minimal effective concentration ([16]; read-out: HCS endpoint MEC) was 0.399 µM and the AC50 ([17]; read-out: ATP endpoint AC50) was 400 nM. It also gave a minimal effective concentration ([17]; read-out: ATP endpoint MEC) of 0.4 µM, an AC50 ([17]; read-out: HCS endpoint AC50) of 400 nM and a minimal effective concentration ([17]; read-out: HCS endpoint MEC) of 0.4 µM.
